What was measured:
[1] = test system: oxazolone-induced colitis; experiment: Mouse model of oxazolone-induced colitis; format: in vivo, BALB/C mice; settings: PO, 1, 3, and/or 10 mg/kg BID
Method: Oxazolone-induced colitis is an experimental model that has a histological resemblance to human ulcerative colitis (Heller et al. […], 2002, 17, 629-638). Adult BALB/C mice from Harlan were used in the assay. On day 1, animals were lightly anesthetized with isoflurane and the hairs between the shoulder were carefully removed before oxazolone (4%, 150 μL, 4:1 acetone: olive oil formulation) or vehicle solution was slowly applied for skin sensitization. Seven days after skin sensitization, the mice were fasted overnight, anesthetized with isoflurane inhalation, and a 1 mL syringe equipped with a 3.5-F catheter, filled with oxazolone solution, was inserted carefully about 4 cm into the colon of the mouse. Following insertion, 50 μL of the oxazolone solution (1%, 1:1 ethanol:water formulation) was injected very slowly (over 30 sec using an injection pump) into the colon. […] Two-day post oxazolone intrarectal challenge, the Disease Activity Index (DAI) was assessed by treatment-blinded experimenters for each mouse according to the criteria score: stool consistency score (0, normal; 2, loose; 4, diarrhea), gross bleeding score (0, absence; 2, blood tinged; 4, presence), and weight loss score (0, none; 1, 1%-5%; 2, 5%-10%; 3, 10%-20%; 4, more than 20%); DAI=average of (stool consistency score+gross bleeding score+weight loss score). […]

[2] = test system: mouse splenic NK, B and T cells; experiment: Immunosuppression effects in mouse splenic natural killer (NK) cells; format: in vivo, Balb/C mice; settings: for B and T cell populations: mouse spleen; for B and T cell populations / splenic NK cell counts: PO BID three days; for splenic NK cell counts: Example 1 up to 100 mg/kg, tofacitinib 30 mg/kg
Method: Depletion of mouse splenic cells is an experimental model of immunosuppression (Kudlacz et al., Am. J. of Transplantation, 2004, 4, 51-57). […] Adult male Balb/C mice (12-14 weeks of age) from Harlan were used for the study. […] Spleens were harvested 1 or 2 h post last dose and crushed immediately for cell subtype staining. Prior to fixation, fluorophore-labelled antibodies for CD19 (FITC; B cells), CD3e (PE; pan T cells) and DX5 (APC; NK cells) were incubated with splenocyte samples from each animal to allow for simultaneous, multiple subtype % analysis on the flow cytometer. The number of total spleen cells for each animal was measured by Scepter™ 2.0 Handheld Automated Cell Counter. The absolute number of lymphocyte subtype population (e.g., splenic B, T and NK cells) was calculated from the percentage of each subtype times total spleen cells for each animal. A one way ANOVA, with Dunnett's post hoc test, was used to compare the splenic lymphocytes number of the vehicle and test compound groups. The a level was set at p<0.05. Data were presented as the mean±SEM for each group.

[3] = First in human study of safety, tolerability and pharmacokinetics in healthy subjects; format: in vivo; settings: suggested by comparison with other orally administered compounds
Method: The compound of Example 1 was evaluated in a double-blinded, randomized, placebo-controlled, single ascending dose (SAD) and multiple ascending dose (MAD) study of safety, tolerability, and pharmacokinetics in healthy subjects. Pharmacokinetic samples were collected up to 72 hours post the final dose in both the SAD study (after the first dose) and MAD study (after 14 days of once-daily dosing). The SAD study enrolled 5 cohorts and the MAD study enrolled 4 cohorts totaling 72 subjects, of which 71 completed the dosing period.
Plasma pharmacokinetic (PK) parameters were determined by non-compartmental analysis using WinNonLin Version 6.4.0 (Pharsight, St Louis, MO). The plasma PK parameter presented here is: • Cmax: maximum concentration in plasma

[4] = Pharmacokinetics in plasma and the GI tract in rats; format: in vivo, Sprague Dawley rats; settings: oral dosing in preclinical species
Method: A test compound was dosed to male Sprague Dawley rats (n=3) as described in Assay 5. […] At all time points, the plasma concentration was below the limit of quantitation of 0.001 μg/mL.

[5] = Solid state stability assessment; format: physicochemical; design: unit not given here
From the text: At specific intervals, the contents of a representative sample was removed and analyzed by HPLC for chemical purity and by Karl Fischer for water content.

[6] = Method: A weighed sample was used and the humidity was lowest possible value (close to 0% RH) at the start of the analysis. The DMS analysis consisted of an initial drying step (0% RH) for 120 minutes, followed by two cycles of sorption and desorption with a scan rate of 5% RH/step over the humidity range of 5% RH to 90% RH. The DMS run was performed isothermally at 25° C.

Cc1cc(Nc2cc3ncccc3c(N[C@@H]3C[C@H]4CC[C@@H](C3)N4CCC#N)n2)n[nH]1 [Example 1, 3-((1R,3s,5S)-3-((7-((5-methyl-1H-pyrazol-3-yl)amino)-1,6-naphthyridin-5-yl)amino)-8-azabicyclo[3.2.1]octan-8-yl)propanenitrile]
decrease in DAI score as compared with vehicle treated animals [1]: demonstrated activity
B and T cell populations [2]: No treatment effect
splenic NK cell counts ([2]; mouse): unaffected
effect of immunosuppression ([2]; mouse, same dose required for efficacy in the oxazolone model): minimal effect
oral bioavailability [3]: very low
exposure throughout the gastrointestinal tract versus plasma [4]: significantly higher exposure

Cc1cc(Nc2cc3ncccc3c(N[C@@H]3C[C@H]4CC[C@@H](C3)N4CCC#N)n2)n[nH]1 [Form I, 3-((1R,3s,5S)-3-((7-((5-methyl-1H-pyrazol-3-yl)amino)-1,6-naphthyridin-5-yl)amino)-8-azabicyclo[3.2.1]octan-8-yl)propanenitrile]
RRT 0.96 ([5]; HPLC peak at RRT 0.96, T = 0): 0.07
RRT 0.96 ([5]; HPLC peak at RRT 0.96, T = 1 Month, 40° C./75% RH): 0.07
RRT 0.96 ([5]; HPLC peak at RRT 0.96, T = 3 Month, 25° C./60% RH): 0.07
RRT 0.96 ([5]; HPLC peak at RRT 0.96, T = 3 Month, 40° C./75% RH): 0.07
RRT 1.84 ([5]; HPLC peak at RRT 1.84, T = 0): 0.08
RRT 1.84 ([5]; HPLC peak at RRT 1.84, T = 1 Month, 40° C./75% RH): 0.08
RRT 1.84 ([5]; HPLC peak at RRT 1.84, T = 3 Month, 25° C./60% RH): 0.05
RRT 1.84 ([5]; HPLC peak at RRT 1.84, T = 3 Month, 40° C./75% RH): 0.05
weight change (gain) on moisture sorption ([6]; 5% to 90% relative humidity, room temperature, listed as Crystalline 3-(1R,3s,5S)-3-((7-((5-methyl-1H-pyrazol-3-yl)amino)-1,6-naphthyrid))): less than 0.15%
hygroscopicity ([6]; two cycles of sorption and desorption): non-hygroscopic

C[C@@H]1CCN(C(=O)CC#N)C[C@@H]1N(C)c1ncnc2[nH]ccc12 [tofacitinib, reference compound]
B and T cell populations [2]: No treatment effect
splenic NK cell counts ([2]; mouse): dose-dependently and significantly decreased

From patent US12358931B2, “3-((1R,3s,5S)-3-((7-((5-methyl-1H-pyrazol-3-yl)amino)-1,6-naphthyridin-5-yl)amino)-8-azabicyclo[3.2.1]octan-8-yl) propanenitrile as a JAK kinase inhibitor” (priority 2015, dated 2025)
